# From ChEMBL document CHEMBL1146435, “Anserinones A and B: new antifungal and antibacterial benzoquinones from the coprophilous fungus Podospora anserina” (1997)
# Activity calls are given as the source filed them. The rule behind the calls is not given here.
# Key:
# Sordaria fimicola = assay: Antimicrobial activity against Sordaria fimicola assessed as reduction in radial growth rate at 200 ug/disk by inoculation disk assay; assay type: functional; parameters: scale not given: the % may be the effect or the level left
# Ascobolus = assay: Antimicrobial activity against Ascobolus furfuraceus assessed as reduction in radial growth rate at 200 ug/disk by inoculation disk assay; assay type: functional; parameters: scale not given: the % may be the effect or the level left
# Bacillus subtilis = assay: Antimicrobial activity against Bacillus subtilis ATCC 6051 at 200 ug/disk; assay type: functional; details: read-out: IZ
# Staphylococcus aureus = assay: Antimicrobial activity against Staphylococcus aureus ATCC 29213 at 200 ug/disk; assay type: functional; details: read-out: IZ
# Candida albicans = assay: Antimicrobial activity against Candida albicans ATCC 90029 at 200 ug/disk; assay type: functional, organism-based
# [1] = Cytotoxicity against human NCI60 cells; assay type: functional
SMILES,Activity (Sordaria fimicola),Activity (Ascobolus),zone of inhibition at 200 µg/disc (Bacillus subtilis),zone of inhibition at 200 µg/disc (Staphylococcus aureus),Activity (Candida albicans),GI50 [1]
COC1=CC(=O)C(C)=C(CC(C)=O)C1=O [ANSERINONE A],60%,100%,40 mm,40 mm,inactive,9.1 µM
COC1=CC(=O)C(C)=C(C[C@H](C)O)C1=O [ANSERINONE B],50%,37%,40 mm,40 mm,inactive,21 µM
